One assay has as its system PPAR. Description: Effect of propionic acid on PPAR gene expression in vitro (semiquantitative RT-PCR in HUVEC). It is filed as cell-based. The conditions noted are these: PPAR mRNA in human endothelial cells, percent in relation to GAPDH mRNA (100%). How it is done: Human umbilical vein endothelial cells, HUVEC, were obtained from umbilical cords by collagenase digestion as described by Jaffe et al. (Biology of Endothelial Cells, Boston, Martinus Nijhoff Publishers, 1984, p. 1-13). In brief, veins of umbilical cords were perfused with PBS to remove blood cells, filled with 0.1% collagenase (type Ia) and left for 10 minutes at 37° C. Suspended HUvEC were supplemented with PBS, centrifuged and cultured at 37° C. in gelatine-coated 25 ml flasks and 6-well tissue culture plates filled with medium 199, under humidified 5% CO2 in room air. Propionic acid was added to the culture medium in the amounts of 0.1, 1.0, and 10.0 mmol/l, and the effect of the acid on the expression of PPAR was determined. Total RNA was extracted from the cells by the method of Chomczynski using TRIZOL (Gibco BRL). After isolation the integrity of the RNA samples was checked by gel electrophoresis in 1% agarose gel stained with ethidium bromide. The concentration of total RNA was calculated after spectrophotometric measurements at 260 nm wavelength. Each RNA sample (500 ng) was incubated with 1 U of DNAse I (Boehringer Mannheim, Germany) for 15 minutes at 37° C., and subsequently DNAse I was inactivated by heating at 75° C. for 3 minutes. Such DNAse-treated RNA (500 ng) was dissolved in 20 μl of a reaction mixture containing 2.5 mM of dATP, dTTP, dCTP, and dGTP (Progmega, USA), 20 U of RNAsin (Promega, USA), 100 pM of random hexamers (Boehringer Mannheim, Germany) and 20 U of MMLV Reverse Transcriptase (Boehringer Mannheim). Incubation was carried out at 37° C. for 60 minutes; the temperature of the reaction was then raised to 94° C. for 5 minutes to inactivate the enzyme and finally dropped to 4° C. […] The intensity of the bands was densitometrically measured with the gel analysis macro supplied with NIH Image. All PPAR signals were normalised to mRNA levels of the housekeeping gene GAPDH and expressed as a ratio. Data are expressed as percent in relation to GAPDH mRNA (100%).

For assay [1] the following is noted: clinical trial, Zapolska-Downar et al. 2000; cited from earlier work.

SMILES strings stand for the structures.

For `CCC(=O)O` [propionic acid], the “Increase of mRNA, %” value in the assay on PPAR (propionic acid 0.1 mmol/l) was 29.3%; with PPAR (propionic acid 1.0 mmol/l) it was 47.2%; with PPAR (propionic acid 10.0 mmol/l), 89.7%.

For `CC(C)Cc1ccc(C(C)C(=O)O)cc1` (stereo not shown) [ibuprofen], in assay [1], the HDL cholesterol levels entry was “increased”.

The values are drawn from patent US20040048356A1, “Use of a strain of lactobacillus reducing the risk factors involved in the metabolic syndrome” (priority 2000, published 2004).
